Measurements reported in PubChem BioAssay AID1626 (SRMLSC, 2009).

Test system: M. tuberculosis H37Rv growth inhibition
Assay: M. tuberculosis H37Rv growth inhibitors, H37Rv strain (AID 1626)
Details: for IC90: measured here: IC90 against H37Rv; for CC50: measured here: Vero cell cytotoxicity

Row | SMILES | IC50 [µM] | IC90 [µM] | CC50 [µM]
1 | CCOC(=O)CSCC(=O)Nc1c(C(=O)C2CC2)oc2ccccc12 | 5.86 | 9.32 | 
2 | COc1ccc(N=Cc2c[nH][nH]c2=O)cc1 |  | > 100 | 
3 | CC(C)C1N=C(c2ccc3c(c2)OCO3)CC(c2ccccc2O)N1 (stereo not given) | 10.6 | 14.3 | 26.8
4 | CC1(C)CC(=O)C(C=Nc2ccc3c(c2)OCO3)=C(O)C1 |  | > 100 | 
5 | O=C(Nc1nc(-c2ccccn2)cs1)c1ncc(Cl)c(Cl)c1Cl | 1.45 | 5.3 | 31.7
6 | CC(NC(=O)Nc1ccc(Br)cc1)C(C)(C)C (stereo not given) | 0.42 | > 100 | 
7 | Cc1ccc(NC(=O)CSc2ccc(-c3ccccn3)nn2)cc1 | 1.98 | 2.74 | > 40
8 | Cc1ccc(-c2ccccc2NC(=O)CCl)o1 | 18.6 | > 100 | > 40
9 | O=C(NCCc1ccc(Cl)cc1)C1CCC(CNc2c(N3CCCCC3)c(=O)c2=O)CC1 (stereo not given) | 11.8 | 13.4 | 
10 | CCCc1nc2sc3ccccc3c(=O)c2c(=O)n1Cc1ccc(OC)cc1 |  | > 100 | > 40
11 | c1ccc(-c2oc3ncnc(NCCCn4ccnc4)c3c2-c2ccccc2)cc1 | 7.29 | 16.4 | 23.6
12 | CCCCOc1ccc(NC(=O)c2cnc(C)cn2)cc1 | 22.1 | > 100 | > 40
13 | CCOC(=O)COc1ccc2ccccc2c1/C=C/[N+](=O)[O-] | 3.01 | 3.47 | 39.2
14 | Cc1cc(NC(=O)CSc2nnc(-c3ccc4c(c3)OCCO4)o2)no1 | 1.49 | 2.53 | > 40
15 | O=C(CCSc1nnc(-c2ccccc2)o1)N1CCOCC1 | 13 | 18 | 
16 | CCC(=O)Nc1nnc(-c2ccc(OC)cc2)o1 | 6.08 | > 100 | 
17 | O=C(Nc1nnc(-c2ccc(F)cc2)o1)c1cccc([N+](=O)[O-])c1 | 5.68 | 14.8 | 12.4

Row | SMILES | IC50 [µM] | IC90 [µM] | CC50 [µM]
18 | Nc1ccc2c(c1)C(=O)C(=O)c1ccccc1-2 | 0.401 | 13.5 | 3.16
19 | Cc1ccc(S/C=C\C(=O)c2ccccc2)cc1 | 5.51 | 8.53 | 
20 | CCOc1ccc(NC(=O)N(C2CCCCC2)C2CCN(C(C)=O)CC2)cc1 |  | > 100 | 
21 | CC(C)(C)C(=O)COC(=O)c1cc2ccccc2cc1O | 2.73 | 16.5 | 
22 | CCN(CC(=O)NC(C)(C)C)C(=O)COc1c(Cl)cc(Cl)c2ccc(C)nc12 | 3.94 | 13.9 | 36.8
23 | Cc1oc2ccc(OC(=O)c3cccs3)cc2c1C(=O)OC(C)C | 2.84 | 21.3 | 
24 | O=C(NC(=O)c1ccc(C(F)(F)F)cc1)Nc1ccc(-c2cnco2)cc1 | 49.6 | > 100 | > 40
25 | COc1ccc2c(c1)CCc1c-2nc2ccccc2c1N1CCOCC1 | 11.5 | 18.6 | > 40
26 | O=C(CNC(=O)/C(=C\c1ccc(Br)cc1)NC(=O)c1ccccc1)OCc1ccccc1 | 1.92 | 3.33 | 13
27 | CCOC(=O)c1ccc(NC(=O)C2CC2)cc1 | 28.5 | > 100 | 
28 | Cc1cc(C)n(-c2nc(Nc3ccccc3C)nc(-n3nc(C)cc3C)n2)n1 | 88.4 | > 100 | 
29 | COc1ccccc1NC(=O)CN1CCN(C2c3ccccc3-c3ccccc32)CC1 |  | > 100 | > 40
30 | CCOC(=O)c1ccc(NC(=O)Cn2cccc2)cc1 |  | > 100 | 
31 | CCOC(=O)c1c(NC(=O)COc2ccccc2)sc2c1CC(C)(C)NC2(C)C | 20.1 | 26.8 | > 40
32 | O=C(CSc1nnc(CNc2cccc(Cl)c2)o1)OC1CCCCC1 | 0.661 | 1.4 | 
33 | COC(=O)C(Oc1ccc2c(-c3ccc(OC)cc3)cc(=O)oc2c1)c1ccccc1 (stereo not given) | 15.4 | 20.9 | 
34 | Cc1ccc(C(=O)CC(=O)COc2ccc(Cl)cc2)cc1 | 6.66 | > 100 | > 40
